Measured values published in patent publication US20210269426A1, “MICROBIOCIDAL OXADIAZOLE DERIVATIVES” (SYNGENTA CROP PROTECTION AG, priority 2018, published 2021).

How the values were obtained:
[1] = test system: Glomerella lagenarium (Colletotrichum lagenarium); assay: Glomerella lagenarium (Colletotrichum lagenarium) liquid culture / cucumber / preventative (anthracnose); type: cell-based; details: Colletotrichum orbiculare; 20 ppm in the applied formulation; liquid culture in PDB, 24° C., 3 to 4 days after application; read-out: disease control (inhibition of growth, photometric)
Experimental: Mycelia fragments or conidia suspensions of a fungus prepared either freshly from liquid cultures of the fungus or from cryogenic storage, are directly mixed into nutrient broth. DMSO solutions of the test compound (max. 10 mg/ml) are diluted with 0.025% Tween20 by a factor of 50 and 10 μl of this solution is pipetted into a microtiter plate (96-well format). The nutrient broth containing the fungal spores/mycelia fragments is then added to give an end concentration of the tested compound. The test plates are incubated in the dark at 24° C. and 96% relative humidity. The inhibition of fungal growth is determined photometrically after 2 to 7 days, depending on the pathosystem, and percent antifungal activity relative to the untreated check is calculated.
Conidia of the fungus from cryogenic storage are directly mixed into nutrient broth (PDB—potato dextrose broth). After placing a (DMSO) solution of test compound into a microtiter plate (96-well format), the nutrient broth containing the fungal spores is added. The test plates are incubated at 24° C. and the inhibition of growth is measured photometrically 3 to 4 days after application.
The following compounds at 20 ppm in the applied formulation give at least 80% disease control in this test when compared to untreated control under the same conditions, which show extensive disease development.

[2] = test system: Puccinia recondita f. Sp. Tritici; assay: Puccinia recondita f. sp. tritici / wheat / leaf disc preventative (brown rust); type: in vivo; details: foliar, 200 ppm in the applied formulation, wheat leaf segments cv. Kanzler, inoculated 1 day after application, assessed 7 to 9 days after application, read-out: disease control
Experimental: Leaf disks or leaf segments of various plant species are cut from plants grown in a greenhouse. The cut leaf disks or segments are placed in multiwell plates (24-well format) onto water agar. The leaf disks are sprayed with a test solution before (preventative) or after (curative) inoculation. Compounds to be tested are prepared as DMSO solutions (max. 10 mg/ml) which are diluted to the appropriate concentration with 0.025% Tween20 just before spraying. The inoculated leaf disks or segments are incubated under defined conditions (temperature, relative humidity, light, etc.) according to the respective test system. A single evaluation of disease level is carried out 3 to 14 days after inoculation, depending on the pathosystem. Percent disease control relative to the untreated check leaf disks or segments is then calculated. Wheat leaf segments cv. Kanzler were placed on agar in multiwell plates (24-well format) and sprayed with the formulated test compound diluted in water. The leaf disks were inoculated with a spore suspension of the fungus 1 day after application. The inoculated leaf segments were incubated at 19° C. and 75% relative humidity (rh) under a light regime of 12 hours light/12 hours darkness in a climate cabinet and the activity of a compound was assessed as percent disease control compared to untreated when an appropriate level of disease damage appears in untreated check leaf segments (7 to 9 days after application). The following compounds at 200 ppm in the applied formulation give at least 80% disease control in this test when compared to untreated control leaf disks under the same conditions, which show extensive disease development.

| melting point [°C] | SMILES | inhibition at 20 ppm [1] [%] | pest or weed control at 200 ppm [2] [%] |
| --- | --- | --- | --- |
| 106 to 107.1 | COCCNC(=O)C(=O)c1ccc(-c2noc(C(F)(F)F)n2)s1 [Compound 1.2, N-(2-methoxyethyl)-2-oxo-2-[5-[5-(trifluoromethyl)-1,2,4-oxadiazol-3-yl]-2-thienyl]acetamide] | ≥ 80 | ≥ 80 |
| 96.2 to 98.7 | CNC(=O)C(=O)c1ccc(-c2noc(C(F)(F)F)n2)s1 [Compound 1.7, N-methyl-2-oxo-2-[5-[5-(trifluoromethyl)-1,2,4-oxadiazol-3-yl]-2-thienyl]acetamide] | ≥ 80 | ≥ 80 |
| 142.7 to 144.6 | CCNC(=O)C(=O)c1ccc(-c2noc(C(F)(F)F)n2)s1 [Compound 1.6, N-ethyl-2-oxo-2-[5-[5-(trifluoromethyl)-1,2,4-oxadiazol-3-yl]-2-thienyl]acetamide] | ≥ 80 | ≥ 80 |
| 109.7 to 112.1 | CONC(=O)C(=O)c1ccc(-c2noc(C(F)(F)F)n2)s1 [Compound 1.5, N-methoxy-2-oxo-2-[5-[5-(trifluoromethyl)-1,2,4-oxadiazol-3-yl]-2-thienyl]acetamide] | ≥ 80 | ≥ 80 |
| 122.1 to 126.7 | O=C(NC1CC1)C(=O)c1ccc(-c2noc(C(F)(F)F)n2)s1 [Compound 1.8, N-cyclopropyl-2-oxo-2-[5-[5-(trifluoromethyl)-1,2,4-oxadiazol-3-yl]-2-thienyl]acetamide] | ≥ 80 | ≥ 80 |
| 88.4 to 89.4 | CN(C)C(=O)C(=O)c1ccc(-c2noc(C(F)(F)F)n2)s1 [Compound 1.3, N,N-dimethyl-2-oxo-2-[5-[5-(trifluoromethyl)-1,2,4-oxadiazol-3-yl]-2-thienyl]acetamide] | ≥ 80 | ≥ 80 |
| – | CON(C)C(=O)C(=O)c1ccc(-c2noc(C(F)(F)F)n2)s1 [Compound 1.4, N-methoxy-N-methyl-2-oxo-2-[5-[5-(trifluoromethyl)-1,2,4-oxadiazol-3-yl]-2-thienyl]acetamide] | ≥ 80 | ≥ 80 |
| 94 to 95.2 | O=C(NCc1ccccc1Cl)C(=O)c1ccc(-c2noc(C(F)(F)F)n2)s1 [Compound 1.1, N-[(2-chlorophenyl)methyl]-2-oxo-2-[5-[5-(trifluoromethyl)-1,2,4-oxadiazol-3-yl]-2-thienyl]acetamide] | ≥ 80 | ≥ 80 |
